What was measured:
[1] = tested on: keratinocytes and LCs or fibroblasts and DDC in co-culture; experiment: Cytokine secretion in monolayer pluricellular co-culture models under the effect of an active ingredient; format: cell-based, human; settings: retinol 0.05% final concentration in culture medium for 3 days
Text: (§1) 1 to 2.10^6 human keratinocytes and 1 to 2.10^6 human monocytes (obtained according to Example 1 or 2) are jointly grown in a nutritious medium, for example of the K-SFM type, in culture dishes, for example of the 6-well plate type. The joint culture is maintained for 6 days in a nutritious medium, for example of the K-SFM type, without adding any exogenous cytokine.
as §1, with “fibroblasts” for “keratinocytes”, “FBM” for “K-SFM”, “dishes” for “dishes,”
In order to assess the irritating, sensitizing, allergizing potency, and to estimate a possible pro- or anti-inflammatory activity of an active ingredient intended for human skin, we quantify in the culture supernatants, secretion of cytokines, for example, IL-1, IL-6, IL-8, IL-10, TNF-[…] INF[…], according to the following protocol: • The model is made according to the protocol described in Example 3 or 4. • Retinol is then added into the culture medium at a final concentration of 0.05% for 3 days. • The culture supernatants are then recovered and analyzed.

[2] = tested on: pro-inflammatory cytokines (IL-1, IL-6, IL-8, TNF-alpha, INF-gamma); experiment: CBA flux cytometry dosage of cytokine secretion in culture supernatants of UV-irradiated reconstructed skin; format: cell-based, human; settings: for efficiency on cell viability and synthesis of pro-inflammatory interleukins after solar UV stress: both parameters (cell mortality, pro-inflammatory molecules), UV-irradiated reconstructed skin; for TNFβ / IL1β / IL8 / IL6: reconstructed skin UV irradiated + formulation with 3% active, 10 days; for TNFβ: control 53, UV irradiated 152; for IL1β: control 76, UV irradiated 179; for IL8: control 275, UV irradiated 395; for IL6: control 379, UV irradiated 649
Text: The model was made according to the following protocol: • The reconstructed dermis model containing DCCs, macrophages and endothelial cells was made according to Example 12. • The reconstructed skin model containing LCs was made according to Example 14.

Compound	secretion of pro-inflammatory cytokines [1]	efficiency on cell viability and synthesis of pro-inflammatory interleukins after solar UV stress [2]	TNFβ [2] [pg/mL]	IL1β [2] [pg/mL]	IL8 [2] [pg/mL]	IL6 [2] [pg/mL]
CC1=C(/C=C/C(C)=C/C=C/C(C)=C/CO)C(C)(C)CCC1 [retinol, Retinol]	stimulation of secretion of pro-inflammatory cytokines					
Hesperitine Laurate [Flavagrum]		demonstrated efficiency with a possible tendency to restore the reference level	105	125	312	452
Quercitine Caprylate [Flavenger]		demonstrated efficiency with a possible tendency to restore the reference level	89	97	294	426

Reference: US20100297765A1 (priority 2006, published 2010)
